Measured values published in patent US11414425B2 (priority 2018, dated 2022).
Like-named read-outs stand apart in the source and are kept apart here.

How the values were obtained:
[1] = target: T1, GABAA receptors (α5β2γ2) (Homo sapiens, UniProt P18507+P31644); test: Positive allosteric modulator activity: potentiation of EC20 GABA current in oocytes; type: cell-based; details: read-out: GABA α5 Functional Data (potentiation of EC20 GABA); @ 100 nM; ranges
T1 construct: expressed in transfected cells
T1 sequence (P31644 32-462): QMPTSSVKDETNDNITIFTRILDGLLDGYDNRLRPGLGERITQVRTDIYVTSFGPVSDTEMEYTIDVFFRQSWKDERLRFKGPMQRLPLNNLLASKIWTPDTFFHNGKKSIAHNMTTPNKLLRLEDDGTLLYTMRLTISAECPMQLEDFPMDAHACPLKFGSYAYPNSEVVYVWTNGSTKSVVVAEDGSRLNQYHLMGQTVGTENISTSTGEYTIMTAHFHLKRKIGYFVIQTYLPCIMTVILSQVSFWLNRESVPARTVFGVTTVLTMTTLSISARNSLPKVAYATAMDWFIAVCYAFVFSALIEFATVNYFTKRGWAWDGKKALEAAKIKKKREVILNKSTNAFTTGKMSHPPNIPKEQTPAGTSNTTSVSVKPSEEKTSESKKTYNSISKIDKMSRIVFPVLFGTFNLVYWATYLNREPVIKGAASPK
T1 sequence (P47870 25-512, further chain): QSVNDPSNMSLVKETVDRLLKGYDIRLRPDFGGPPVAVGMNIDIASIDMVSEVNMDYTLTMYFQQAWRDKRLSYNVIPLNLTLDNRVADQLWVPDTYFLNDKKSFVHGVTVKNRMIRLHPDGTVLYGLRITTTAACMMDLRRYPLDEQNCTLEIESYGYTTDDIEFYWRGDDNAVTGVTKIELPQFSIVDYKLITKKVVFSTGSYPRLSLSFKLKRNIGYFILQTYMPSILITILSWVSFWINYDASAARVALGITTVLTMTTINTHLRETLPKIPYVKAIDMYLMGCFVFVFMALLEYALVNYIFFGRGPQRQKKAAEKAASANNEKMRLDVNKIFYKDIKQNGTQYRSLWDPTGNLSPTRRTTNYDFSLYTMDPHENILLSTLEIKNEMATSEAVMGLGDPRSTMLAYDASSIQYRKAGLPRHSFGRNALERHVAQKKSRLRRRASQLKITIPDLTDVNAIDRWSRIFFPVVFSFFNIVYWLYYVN
T1 sequence (P18507 40-475): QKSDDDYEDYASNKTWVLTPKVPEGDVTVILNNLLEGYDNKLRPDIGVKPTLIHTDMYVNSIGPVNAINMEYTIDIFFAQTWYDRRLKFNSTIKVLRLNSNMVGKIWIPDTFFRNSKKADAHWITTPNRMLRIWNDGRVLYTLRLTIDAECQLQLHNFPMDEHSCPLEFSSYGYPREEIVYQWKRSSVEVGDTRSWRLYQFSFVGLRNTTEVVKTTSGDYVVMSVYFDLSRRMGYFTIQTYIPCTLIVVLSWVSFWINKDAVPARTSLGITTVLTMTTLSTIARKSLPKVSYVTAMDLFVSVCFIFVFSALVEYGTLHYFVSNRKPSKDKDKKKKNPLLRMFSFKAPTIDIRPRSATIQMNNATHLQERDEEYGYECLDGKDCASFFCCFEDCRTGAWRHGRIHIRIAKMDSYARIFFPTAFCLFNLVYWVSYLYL
Experimental: On day 1, 1 ng/32 nL of GABAA α5β2γ2 cDNA was injected into one oocyte. Test starts on day 2. The cDNA injected to the oocytes was a mix of alpha, beta and gamma, their ratio is 1:1:10 (by weight) and the total weight of the mixed 3 subunits to be injected in one oocyte was 1 ng in 32 nl volume. The injected oocytes can also be tested on day 3. In such case, the cDNA amount injected to the oocytes should be reduced by 20%.
1). 8 oocytes were placed in 8 chambers of OpusXpress and superfused with Modified Barth's Saline (MBS) at 3 mL/min. Glass electrodes back-filled with 3M KCl (0.5-3 megaohms) were used.
1). New oocytes were used to run new test.
3). […] Oocytes were washed with MBS for 5-10 min.
4). […] Itest was divided by IGABA to obtain potentiation (%).
Test Compounds at Multiple Doses • 1). Repeat the above steps 1), 2) and 3) in the control test. • 2). […] Divide Itest by IGABA to obtain potentiation (%). • 3). Discard all tested oocytes, new oocytes were used and the above steps 1) and 2) were repeated to test second concentration of the same compound. Each oocyte was used for only one concentration test for a single test compound. The steps were repeated for other test compounds.

[2] = target: α5β3γ2 GABAA receptors (Homo sapiens, UniProt P18507+P31644); test: [3H]Ro15-1788 binding, membranes of Ltk cells stably expressing α5β3γ2 GABAA receptors
Sequence of α5β3γ2 GABAA receptors (P31644 32-462): as the sequence (P31644 32-462) above
Sequence of α5β3γ2 GABAA receptors (P28472 26-473 partner): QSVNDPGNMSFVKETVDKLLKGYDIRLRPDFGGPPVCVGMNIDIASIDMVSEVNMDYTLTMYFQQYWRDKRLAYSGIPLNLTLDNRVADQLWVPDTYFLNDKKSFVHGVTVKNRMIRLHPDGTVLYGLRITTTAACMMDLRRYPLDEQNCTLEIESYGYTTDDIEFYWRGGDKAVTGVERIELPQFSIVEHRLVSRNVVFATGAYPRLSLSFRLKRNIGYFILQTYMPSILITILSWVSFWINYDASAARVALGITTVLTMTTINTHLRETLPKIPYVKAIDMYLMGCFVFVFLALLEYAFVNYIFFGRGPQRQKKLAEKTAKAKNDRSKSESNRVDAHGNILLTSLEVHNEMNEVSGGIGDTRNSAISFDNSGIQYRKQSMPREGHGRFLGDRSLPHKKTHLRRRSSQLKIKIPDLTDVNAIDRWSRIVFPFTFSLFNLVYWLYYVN
Sequence of α5β3γ2 GABAA receptors (P18507 40-475): as the sequence (P18507 40-475) above

[3] = ranges, inhibition of [3H]Ro15-1788 binding

## COCc1nnc2n1Cc1c(C#Cc3cnccn3)ncn1-c1ccc(OC)cc1-2 [Compound 589]
[1]
  activation at 0.1 µM: > 50%
[2]; [3]
  Ki: < 100 nM

## COc1ccc2c(c1)-n1nncc1Cc1c(C#CCc3ccccc3OC(F)(F)F)ncn1-2 [Compound 420]
[1]
  activation at 0.1 µM: 5 to 20%

## COCc1nnc2n1Cc1c(C#Cc3ccc(=O)n(C)c3)ncn1-c1ccc(Cl)cc1-2 [Compound 677]
[1]
  activation at 0.1 µM: 5 to 20%
[2]; [3]
  Ki: < 100 nM

## FC(F)(F)c1ccc2c(c1)-n1nncc1Cc1c(-c3ncco3)ncn1-2 [Compound 475]
[1]
  activation at 0.1 µM: 5 to 20%
[2]; [3]
  Ki: < 100 nM

## CCOc1ccc(C#Cc2ncn3c2Cn2c(COC)nnc2-c2cc(OC)ccc2-3)cn1 [Compound 710]
[1]
  activation at 0.1 µM: 5 to 20%
[2]; [3]
  Ki: < 100 nM

## COCc1nnn2c1Cc1c(C#Cc3ccc(OC)nc3)ncn1-c1ccc(Cl)cc1-2 [Compound 633]
[1]
  activation at 0.1 µM: 20 to 50%
[2]; [3]
  Ki: < 100 nM

## Clc1ccc2c(c1)-n1nncc1Cc1c(C3=NC[C@@H](c4ccccc4)O3)ncn1-2 [Compound 514]
[1]
  activation at 0.1 µM: 5 to 20%
[2]; [3]
  Ki: < 100 nM

## COc1ccc2c(c1)-n1nncc1Cc1c(C#Cc3ccn(C)n3)ncn1-2 [Compound 670]
[1]
  activation at 0.1 µM: > 50%
[2]; [3]
  Ki: < 100 nM

## Fc1ccc([C@@H]2COC(c3ncn4c3Cc3cnnn3-c3cc(Cl)ccc3-4)=N2)cc1 [Compound 522]
[1]
  activation at 0.1 µM: 5 to 20%
[2]; [3]
  Ki: < 100 nM

## COCc1nnc2n1Cc1c(C#Cc3ccnc(OC)c3)ncn1-c1ccc(Cl)cc1-2 [Compound 570]
[1]
  activation at 0.1 µM: 5 to 20%
[2]; [3]
  Ki: < 100 nM

## COCc1nnc2n1Cc1c(C#Cc3cncc(C)c3)ncn1-c1ccc(Cl)cc1-2 [Compound 558]
[1]
  activation at 0.1 µM: 5 to 20%
[2]; [3]
  Ki: < 100 nM

## COCc1nnc2n1Cc1c(C#Cc3cnc4occc4c3)ncn1-c1ccc(OC)cc1-2 [Compound 674]
[1]
  activation at 0.1 µM: 5 to 20%
[2]; [3]
  Ki: < 100 nM

## COCc1nnc2n1Cc1c(C#Cc3ccc(OC)nn3)ncn1-c1ccc(OC)cc1-2 [Compound 712]
[1]
  activation at 0.1 µM: > 50%
[2]; [3]
  Ki: < 100 nM

## COCc1nnc2n1Cc1c(C#Cc3cccnc3OC)ncn1-c1ccc(OC)cc1-2 [Compound 615]
[1]
  activation at 0.1 µM: 20 to 50%
[2]; [3]
  Ki: < 100 nM

## COCc1nnn2c1Cc1c(C3=NC[C@H](c4ccc(Cl)cc4)O3)ncn1-c1ccc(OC)cc1-2 [Compound 636]
[1]
  activation at 0.1 µM: 5 to 20%
[2]; [3]
  Ki: < 100 nM

## COc1ccc2c(c1)-n1nncc1Cc1c(C#CCc3cccc(F)c3)ncn1-2 [Compound 419]
[1]
  activation at 0.1 µM: 20 to 50%

## COCc1nnc2n1Cc1c(C#Cc3cccc(C)n3)ncn1-c1ccc(Cl)cc1-2 [Compound 596]
[1]
  activation at 0.1 µM: > 50%
[2]; [3]
  Ki: < 100 nM

## COc1ccc2c(c1)-n1nncc1Cc1c(C3=N[C@H](c4ccc(Cl)cc4)CO3)ncn1-2 [Compound 517]
[1]
  activation at 0.1 µM: 20 to 50%
[2]; [3]
  Ki: < 100 nM

## COCc1nnn2c1Cc1c(C#CC(C)(C)C)ncn1-c1ccc(Cl)cc1-2 [Compound 640]
[1]
  activation at 0.1 µM: 20 to 50%
[2]; [3]
  Ki: < 100 nM

## FC(F)(F)Oc1ccc2c(c1)-n1nncc1Cc1c(C3=N[C@H](c4ccccc4)CO3)ncn1-2 [Compound 507]
[1]
  activation at 0.1 µM: 5 to 20%
[2]; [3]
  Ki: < 100 nM

## COCc1nnc2n1Cc1c(C#Cc3cnc(C)[nH]3)ncn1-c1ccc(OC)cc1-2 [Compound 685]
[1]
  activation at 0.1 µM: > 50%

## COc1ccc(C#Cc2ncn3c2Cc2cnnn2-c2cc(OC(F)F)ccc2-3)cn1 [Compound 555]
[1]
  activation at 0.1 µM: 5 to 20%
[2]; [3]
  Ki: < 100 nM

## COc1ccc(C#Cc2ncn3c2Cc2cnnn2-c2cc(C(F)(F)F)ccc2-3)cc1 [Compound 499]
[1]
  activation at 0.1 µM: 20 to 50%
[2]; [3]
  Ki: < 100 nM

## C#Cc1ncn2c1Cn1c(COc3ccccc3F)nnc1-c1cc(Cl)ccc1-2 [Compound 353, 15-chloro-5-ethynyl-9-(2-fluorophenoxymethyl)-2,4,8,10,11-pentaazatetracyclo[11.4.0.0^2,6.0^8,12]heptadeca-1(17),3,5,9,11,13,15-heptaene]
[1]
  activation at 0.1 µM: > 50%

## COc1ccc2c(c1)-n1nncc1Cc1c(C3=NCC(c4ncccc4OC)O3)ncn1-2 (stereo not drawn) [Compound 632]
[1]
  activation at 0.1 µM: 5 to 20%
[2]; [3]
  Ki: < 100 nM

## COCc1nnn2c1Cc1c(C#Cc3ccc(OC)cn3)ncn1-c1ccc(Cl)cc1-2 [Compound 637]
[1]
  activation at 0.1 µM: 20 to 50%
[2]; [3]
  Ki: < 100 nM

## Cc1cncc(C#Cc2ncn3c2Cc2cnnn2-c2cc(Cl)ccc2-3)c1 [Compound 618]
[1]
  activation at 0.1 µM: 20 to 50%
[2]; [3]
  Ki: < 100 nM

## COc1ccc2c(c1)-n1nncc1Cc1c(C3=NC[C@@H](c4ccccc4)O3)ncn1-2 [Compound 512]
[1]
  activation at 0.1 µM: 5 to 20%
[2]; [3]
  Ki: < 100 nM

## COc1ccc2c(c1)-n1nncc1Cc1c(C3=N[C@H](c4ccc(F)cc4)CO3)ncn1-2 [Compound 519]
[1]
  activation at 0.1 µM: 20 to 50%
[2]; [3]
  Ki: < 100 nM

## COCc1nnc2n1Cc1c(C#Cc3ccn(C)n3)ncn1-c1ccc(OC)cc1-2 [Compound 687]
[1]
  activation at 0.1 µM: > 50%

## C#Cc1ncn2c1Cc1cnnn1-c1cc(Cl)ccc1-2 [Compound 356]
[1]
  activation at 0.1 µM: > 50%

## Clc1ccc2c(c1)-c1nnc(COCc3ccccc3)n1Cc1c(-c3ncco3)ncn1-2 [Compound 350]
[1]
  activation at 0.1 µM: > 50%

## COc1ccc2c(c1)-n1nncc1Cc1c(C#CCc3cccc(Cl)c3)ncn1-2 [Compound 417]
[1]
  activation at 0.1 µM: 5 to 20%

## COCc1nnc2n1Cc1c(C#CCc3cccc(F)c3)ncn1-c1ccc(Cl)cc1-2 [Compound 421]
[1]
  activation at 0.1 µM: 20 to 50%

## CC(C)C#Cc1ccc2c(c1)-n1nncc1Cc1c(Br)ncn1-2 [Compound 454]
[1]
  activation at 0.1 µM: 5 to 20%

## COCc1nnc2n1Cc1c(C#Cc3ccnn3C)ncn1-c1ccc(OC)cc1-2 [Compound 686]
[1]
  activation at 0.1 µM: > 50%

## COCc1nnc2n1Cc1c(C#Cc3cc(C)ccn3)ncn1-c1ccc(Cl)cc1-2 [Compound 560]
[2]; [3]
  Ki: < 100 nM

## COCc1nnc2n1Cc1c(C#Cc3c[nH]nc3OC)ncn1-c1ccc(Cl)cc1-2 [Compound 664]
[2]; [3]
  Ki: < 100 nM

## COc1ccc2c(c1)-n1nncc1Cc1c(C#Cc3cnc(OC)s3)ncn1-2 [Compound 621]
[2]; [3]
  Ki: < 100 nM

## COCc1nnc2n1Cc1c(C#CCc3cccc(Cl)c3)ncn1-c1ccc(Cl)cc1-2 [Compound 422]
[1]
  activation at 0.1 µM: 20 to 50%

## COCc1nnc2n1Cc1c(C#Cc3cncnc3)ncn1-c1ccc(OC)cc1-2 [Compound 592]
[2]; [3]
  Ki: < 100 nM

## COCc1nnc2n1Cc1c(C#Cc3ccc(C)cn3)ncn1-c1ccc(Cl)cc1-2 [Compound 557]
[2]; [3]
  Ki: < 100 nM

## Clc1ccc([C@H]2CN=C(c3ncn4c3Cc3cnnn3-c3cc(Cl)ccc3-4)O2)cc1 [Compound 720]
[2]; [3]
  Ki: < 100 nM

## CCCc1noc(-c2ncn3c2Cc2c(Cc4cccc(F)c4)nnn2-c2cc(Cl)ccc2-3)n1 [Compound 480]
[2]
  Ki: 100 to 1000 nM

## COCc1nnc2n1Cc1c(C#Cc3cncnc3)ncn1-c1ccc(Cl)cc1-2 [Compound 569]
[2]; [3]
  Ki: < 100 nM

## Cc1nc(-c2ncn3c2Cc2c(Cc4ccc(F)cc4)nnn2-c2cc(Cl)ccc2-3)no1 [Compound 496]
[2]; [3]
  Ki: < 100 nM

## COc1ccc2c(c1)-n1nncc1Cc1c(C3=NC[C@@H](c4cccc(F)c4)O3)ncn1-2 [Compound 692]
[2]
  Ki: < 100 nM

## COc1ccc2c(c1)-n1nncc1Cc1c(C#Cc3ccc(OC)nn3)ncn1-2 [Compound 694]
[2]; [3]
  Ki: < 100 nM

## COCc1nnc2n1Cc1c(C#Cc3ccc(OC)c(C)n3)ncn1-c1ccc(OC)cc1-2 [Compound 586]
[2]; [3]
  Ki: < 100 nM

## COc1ccc(C#Cc2ncn3c2Cc2cnnn2-c2cc(Cl)ccc2-3)cn1 [Compound 533]
[2]; [3]
  Ki: < 100 nM

## Fc1ccc(Cc2nnn3c2Cc2c(-c4ncco4)ncn2-c2ccc(OC(F)(F)F)cc2-3)cc1 [Compound 495]
[2]; [3]
  Ki: 100 to 1000 nM

## COCc1nnc2n1Cc1c(C#CCc3cccc(OC(F)(F)F)c3)ncn1-c1ccc(Cl)cc1-2 [Compound 423]
[1]
  activation at 0.1 µM: 5 to 20%

## FC(F)(F)c1ccc2c(c1)-n1nncc1Cc1c(C3=N[C@H](c4ccccc4)CO3)ncn1-2 [Compound 506]
[2]; [3]
  Ki: < 100 nM

## COCc1nnc2n1Cc1c(C#Cc3ccc(-n4cccc4)cc3)ncn1-c1ccc(OC)cc1-2 [Compound 713]
[2]; [3]
  Ki: < 100 nM

## CC(C)OCc1nnc2n1Cc1c(-c3nc(-c4ccccc4)co3)ncn1-c1ccc(Cl)cc1-2 [Compound 276]
[2]; [3]
  Ki: < 100 nM

## CC1(C)OC(c2ncn3c2Cc2cnnn2-c2cc(OC(F)F)ccc2-3)=N[C@H]1c1ccccc1 [Compound 626]
[2]; [3]
  Ki: 100 to 1000 nM

## COc1ccc(C#Cc2ncn3c2Cc2cnnn2-c2cc(OC(F)(F)F)ccc2-3)cc1 [Compound 497]
[2]; [3]
  Ki: < 100 nM

## COCc1nnc2n1Cc1c(C#Cc3ccc(O)nc3)ncn1-c1ccc(Cl)cc1-2 [Compound 568]
[2]; [3]
  Ki: < 100 nM

## COCc1nnc2n1Cc1c(C#Cc3ccc(OCC4CC4)nc3)ncn1-c1ccc(Cl)cc1-2 [Compound 700]
[2]; [3]
  Ki: < 100 nM

## COCc1nnc2n1Cc1c(C)ncn1-c1ccc(OC)cc1-2 [Compound 329]
[2]; [3]
  Ki: > 1000 nM

## CC(C)c1noc(-c2ncn3c2Cc2c(Cc4cccc(F)c4)nnn2-c2cc(C(F)(F)F)ccc2-3)n1 [Compound 487]
[2]; [3]
  Ki: 100 to 1000 nM

## CCc1cncc(C#Cc2ncn3c2Cn2c(COC)nnc2-c2cc(OC)ccc2-3)c1 [Compound 599]
[2]; [3]
  Ki: < 100 nM

## COCc1nnc2n1Cc1c(C#Cc3ccc(C)nc3)ncn1-c1ccc(Cl)cc1-2 [Compound 556]
[2]; [3]
  Ki: 100 to 1000 nM

## COCc1nnc2n1Cc1c(C#Cc3cnc(OC)nc3)ncn1-c1ccc(Cl)cc1-2 [Compound 575]
[2]; [3]
  Ki: 100 to 1000 nM

## COc1ccc2c(c1)-n1nncc1Cc1c(C3=NCC(c4cccnc4)O3)ncn1-2 (racemic) [Compound 691]
[2]
  Ki: < 100 nM
